In data set [1] the target is T1, Androgen receptor (Homo sapiens, UniProt P10275).
T1 sequence (P10275 whole entry): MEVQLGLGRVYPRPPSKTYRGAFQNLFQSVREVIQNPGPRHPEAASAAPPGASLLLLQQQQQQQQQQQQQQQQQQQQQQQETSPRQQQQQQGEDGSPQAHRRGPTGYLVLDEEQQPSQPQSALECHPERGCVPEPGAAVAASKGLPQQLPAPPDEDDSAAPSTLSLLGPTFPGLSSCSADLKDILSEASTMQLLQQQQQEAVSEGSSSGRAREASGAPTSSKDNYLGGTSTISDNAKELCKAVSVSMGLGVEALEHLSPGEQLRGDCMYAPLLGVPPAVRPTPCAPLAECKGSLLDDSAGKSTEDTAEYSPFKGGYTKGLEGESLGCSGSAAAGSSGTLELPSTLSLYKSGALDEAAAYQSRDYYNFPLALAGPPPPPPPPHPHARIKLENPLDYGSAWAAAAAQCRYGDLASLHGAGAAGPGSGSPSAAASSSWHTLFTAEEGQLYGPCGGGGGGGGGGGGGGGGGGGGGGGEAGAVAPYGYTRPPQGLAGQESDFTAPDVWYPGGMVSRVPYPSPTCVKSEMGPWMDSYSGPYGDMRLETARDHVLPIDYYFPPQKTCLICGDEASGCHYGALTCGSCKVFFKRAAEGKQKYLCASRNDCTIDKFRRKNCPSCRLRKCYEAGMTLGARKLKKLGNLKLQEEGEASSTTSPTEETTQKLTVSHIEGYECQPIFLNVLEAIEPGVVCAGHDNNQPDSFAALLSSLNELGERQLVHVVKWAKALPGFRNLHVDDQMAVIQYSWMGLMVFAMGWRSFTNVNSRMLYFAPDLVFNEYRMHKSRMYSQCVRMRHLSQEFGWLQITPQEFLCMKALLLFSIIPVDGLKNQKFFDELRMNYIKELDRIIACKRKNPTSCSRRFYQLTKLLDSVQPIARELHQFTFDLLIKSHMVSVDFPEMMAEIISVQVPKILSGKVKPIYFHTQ
Description: Agonist activity at human androgen receptor in CV1 cells by transcriptional activation assay

In data set [2] the target is T1, Androgen receptor. Kind of data set: biochemical.
Description: Displacement of [3H]DHT from human Androgen receptor in human MDA-MB-453 cells
Data set [3] deals with T1, Androgen receptor. The source holds these as a separate data set.
Description: Antagonist activity at human androgen receptor in CV1 cells by transcriptional activation assay
Data set [4] relates to Rattus norvegicus. Kind of data set: Effect on Levator ani muscle weight maintenance in orchidectomized Sprague-Dawley rat at 10 mg/kg, po. It is filed as functional, organism-based. Set-up: dose 10 mg/kg.
The nature of data set [5]: Metabolic stability in rat liver microsome at 5 uM. It counts as ADME. Particulars: liver microsomes.
Data set [6] deals with Rattus norvegicus. Kind of data set: Effect on Levator ani muscle weight maintenance in orchidectomized Sprague-Dawley rat at 3 mg/kg, po. It is filed as functional, organism-based. Further details: dose 3 mg/kg.

The source made the active and inactive calls. The calls are words filed in the database; no cut-off is given here.

On to `CCOCC1COc2cc3[nH]c(=O)cc(C(F)(F)F)c3cc2N1CC(F)(F)F` (racemic), for which, at Androgen receptor [1], the EC50 came out at 3.2 nM.

The molecule `CCCOCC1COc2cc3[nH]c(=O)cc(C(F)(F)F)c3cc2N1CC(F)(F)F` (racemic) returned a 50% effective concentration (EC50) on Androgen receptor [1] of 4.2 nM. This EC50 and that of the molecule before are within 1.5-fold of each other.

At Androgen receptor [2], `O=c1cc(C(F)(F)F)c2cc3c(cc2[nH]1)OC[C@@H](CO)N3CC(F)(F)F` came in with a Ki of 15 nM. At Androgen receptor [3], this molecule returned an IC50 of 60 nM. Also, a half-maximal response at Androgen receptor [1] (EC50) required 11 nM.

Consider `O=c1cc(C(F)(F)F)c2cc3c(cc2[nH]1)OC[C@H](c1ccccc1)N3CC(F)(F)F`, for which the Ki at Androgen receptor [2] is 150 nM. On Androgen receptor [3], this molecule gave an IC50 of 340 nM.

Regarding `O=c1cc(C(F)(F)F)c2cc3c(cc2[nH]1)OC[C@H](CO)N3CC(F)(F)F`, the Ki at Androgen receptor [2] came to 22 nM. The same molecule gave a 50% inhibitory concentration (IC50) against Androgen receptor [3] of 165 nM. This molecule also displayed an EC50 on Androgen receptor [1] of 6.6 nM.

With `O=c1cc(C(F)(F)F)c2cc3c(cc2[nH]1)OCC(C(F)F)N3CC(F)(F)F` (racemic), the affinity at Androgen receptor [2], expressed as Ki, was 6.6 nM. This molecule also returned an EC50 on Androgen receptor [1] of 1.3 nM.

`O=c1cc(C(F)(F)F)c2cc3c(cc2[nH]1)OC[C@@H](CC(F)(F)F)N3CC(F)(F)F` registered a Ki at Androgen receptor [2] of 18 nM. Further, the response at Androgen receptor [1] was half-maximal at 23 nM (EC50).

`N#CCC1COc2cc3[nH]c(=O)cc(C(F)(F)F)c3cc2N1CC(F)(F)F` (racemic) displayed a Ki at Androgen receptor [2] of 18 nM. The molecule further showed an EC50 at Androgen receptor [1] of 30 nM.

`Cc1ccc([C@@H]2COc3cc4[nH]c(=O)cc(C(F)(F)F)c4cc3N2CC(F)(F)F)cc1` returned an EC50 at Androgen receptor [1] of 36 nM.

As to `CSCC[C@@H]1COc2cc3[nH]c(=O)cc(C(F)(F)F)c3cc2N1CC(F)(F)F`, at Androgen receptor [2], the affinity, expressed as Ki, was 2.4 nM. The EC50 on Androgen receptor [1] is 23 nM.

As for `COC[C@H]1COc2cc3[nH]c(=O)cc(C(F)(F)F)c3cc2N1CC(F)(F)F`, the Ki on Androgen receptor [2] was found to be 109 nM. Besides, the IC50 at Androgen receptor [3] worked out at 17 nM. The molecule also showed an EC50 at Androgen receptor [1] of 77 nM.

For the molecule `O=c1cc(C(F)(F)F)c2cc3c(cc2[nH]1)OC[C@H](CF)N3CC(F)(F)F`, at Androgen receptor [2], the Ki was 2.6 nM. In the data set with Rattus norvegicus [4], the outcome was Active. At Androgen receptor [1], this molecule gave an EC50 of 3.8 nM. The half-life at 5 µM in data set [5] was 0.567 h.

`Cc1cccc([C@H]2COc3cc4[nH]c(=O)cc(C(F)(F)F)c4cc3N2CC(F)(F)F)c1` came in with an inhibition constant (Ki) on Androgen receptor [2] of 180 nM. For the same molecule, the IC50 against Androgen receptor [3] came to 574 nM.

In the case of `O=c1cc(C(F)(F)F)c2cc3c(cc2[nH]1)OCC(C(F)(F)F)N3CC(F)(F)F` (racemic), the affinity on Androgen receptor [2] corresponds to a Ki of 8.3 nM. This molecule displayed an EC50 at Androgen receptor [1] of 5.9 nM.

For `Cc1ccc([C@H]2COc3cc4[nH]c(=O)cc(C(F)(F)F)c4cc3N2CC(F)(F)F)cc1`, 44 nM corresponded to half-maximal inhibition against Androgen receptor [3] (IC50).

Turning to `Cc1cccc([C@@H]2COc3cc4[nH]c(=O)cc(C(F)(F)F)c4cc3N2CC(F)(F)F)c1`, at Androgen receptor [2], the inhibitory constant (Ki) was determined as 1.1 nM. On Androgen receptor [1], this molecule gave an EC50 of 19 nM.

Turning to `COC[C@@H]1COc2cc3[nH]c(=O)cc(C(F)(F)F)c3cc2N1CC(F)(F)F`, the Ki at Androgen receptor [2] was determined as 9.4 nM. In addition, the midpoint of the response on Androgen receptor [1], the EC50, lay at 2 nM.

Turning to `O=c1cc(C(F)(F)F)c2cc3c(cc2[nH]1)OC[C@@H](C(F)(F)F)N3CC(F)(F)F`, the Ki on Androgen receptor [2] is 281 nM. Also, the concentration for half-maximal inhibition (IC50) at Androgen receptor [3] was 34 nM. It took 42 nM to reach a half-maximal effect on Androgen receptor [1] (EC50).

`O=c1cc(C(F)(F)F)c2cc3c(cc2[nH]1)OC[C@H](C(F)(F)F)N3CC(F)(F)F`: at Androgen receptor [2], the Ki was 5.9 nM. The same molecule registered an EC50 at Androgen receptor [1] of 2 nM. The result with Rattus norvegicus [6] was Active. The half-life at 5 µM in data set [5] is 1.67 h.

Molecule `O=c1cc(C(F)(F)F)c2cc3c(cc2[nH]1)OC[C@@H](c1ccccc1)N3CC(F)(F)F` came in with a Ki on Androgen receptor [2] of 1.3 nM. The molecule further gave an EC50 on Androgen receptor [1] of 5.3 nM.

At Androgen receptor [3], `O=c1cc(C(F)(F)F)c2cc3c(cc2[nH]1)OC[C@@H](Cc1ccccc1)N3CC(F)(F)F` showed an IC50 of 51 nM.

As to `O=c1cc(C(F)(F)F)c2cc3c(cc2[nH]1)OC[C@@H](CF)N3CC(F)(F)F`, on Androgen receptor [2], the Ki was 32 nM. For the same molecule, half-maximal inhibition against Androgen receptor [3] (IC50) was put at 199 nM. The EC50 at Androgen receptor [1] turned out to be 35 nM.

With `CSCC1COc2cc3[nH]c(=O)cc(C(F)(F)F)c3cc2N1CC(F)(F)F` (racemic), the midpoint of inhibition against Androgen receptor [3], the IC50, lay at 25 nM. Further, the EC50 on Androgen receptor [1] was 28 nM.

The values are drawn from ChEMBL document CHEMBL1145608, “Selective androgen receptor modulators based on a series of 7H-[1,4]oxazino[3,2-g]quinolin-7-ones with improved in vivo activity” (Bioorg Med Chem Lett, 2008).
